Activity calls are given as the source filed them. The calls are words filed in the database; no cut-off is given here.
Test system: Bacillus subtilis
Assay: Antimicrobial activity against Bacillus subtilis
Format: functional, organism-based

Which Activity does the source give for `CC(O)c1cc(O)c2c(c1O)C(=O)C=C(O)C2=O` (stereo unspecified) here?
The Activity was “inactive”.

Source: ChEMBL document CHEMBL1147269, “Cribrarione B, a new naphthoquinone pigment from the myxomycete Cribraria cancellata” (J Nat Prod, 2003)
